From patent publication US9364564B2, “Pre-mixed, ready-to-use pharmaceutical compositions” (EKR Therapeutics, Inc., priority 2006, dated 2016)
Counter-ions that a name gives are not always drawn.

What was measured:
[1] = cited from earlier work
[2] = Stability of concentrated ampul product after dilution with intravenous infusion fluids; format: physicochemical; details: diluted to 0.1 mg/ml in IV bag, 24 hours, final pH above 4.5
Method: Stability results for the concentrated ampul product diluted to 0.1 mg/ml with various commonly used intravenous infusion fluids in an IV bag are shown in FIG. 1. pH after mixing was measured and is reported on the X-axis. Product stability was measured by monitoring the % drug remaining after duration of 24 hours by RP-HPLC and is shown on the Y-axis.

[3] = Effect of plastic film composition (IV bag type) on stability at 40° C.; format: physicochemical; details: bags containing PVC (VIAFLEX, INTRAVIA), 0.2 mg/mL non-sorbitol dextrose formulation
Method: The effect of plastic film composition on the stability of ready to use premixed compositions comprising 0.2 mg/mL nicardipine HCl, 0.2 mM citrate, 5% dextrose, pH 4.0-4.2 for “incompatible” bags and “compatible” bags is shown in FIGS. 5A and 5B respectively. “Incompatible” bags contain polar polymers, such as polyvinyl chloride (PVC) and ethylene vinyl acetate (EVA). […] Stability evaluations were done for the 0.2 mg/mL non-sorbitol dextrose formulation in various commercially available IV infusion bag systems. […]®, and VISIV® bags were rinsed in water and covered with aluminum foil over pouches. The bags were filled with the above formulation and autoclaved at 105° C. for 21 minutes. […]®71 and GALAXY® bags were aseptically filled with the above formulation. Stability assessments were done by measuring the % drug remaining and total impurity formation (data not shown) as a function of time using RP-HPLC for samples incubated for up to 24 weeks at 40° C. The % drug remaining was calculated relative to the concentration measured post-mixing in tank.

[4] = weak base; cited from earlier work

Row | drug loss post dilution [2] | loss in product potency upon storage [3] | Compound | solubility in water [1] | pKa [4]
1 |  |  | COC(=O)C1=C(C)NC(C)=C(C(=O)OCCN(C)Cc2ccccc2)C1c1cccc([N+](=O)[O-])c1 (stereo not shown) [Nicardipine, nicardipine] | only slightly soluble | 
2 | very pronounced drug loss | Significant loss in product potency | COC(=O)C1=C(C)NC(C)=C(C(=O)OCCN(C)Cc2ccccc2)C1c1cccc([N+](=O)[O-])c1 (racemic) [nicardipine HCl, (±)-2-(benzyl-methylamino) ethyl methyl 1,4-dihydro-2,6-dimethyl-4-(m-nitrophenyl)-3,5-pyridinedicarboxylate monohydrochloride] |  | ~7.2
